Source: patent US11912668B2, “GCN2 and perk kinase inhibitors and methods of use thereof” (Deciphera Pharmaceuticals, LLC, priority 2020, dated 2024)

Legend:
GCN2 kinase = GCN2 kinase (Homo sapiens (Human), UniProt Q9P2K8); assay: Biochemical assay for GCN2 (TR-FRET kinase activity assay); details: 1 mM ATP, 3-hour incubation
Experimental: Activity of GCN2 kinase was determined using a TR-FRET kinase activity assay (e.g. Riddle et al. Analytical Biochemistry (2006) 356(1) 108-116). Assays were conducted in 384-well plates (13 μL assay volume) using 2 nM GCN2 (Carna Biosciences), 130 nM GFP-EIf2α (Invitrogen), 0.2 mg/mL E. coli tRNA (sigma) and 1 mM ATP in kinase buffer (Invitrogen). Inhibition of GCN2 was measured by adding serial diluted test compound (final assay concentration of 0.5% DMSO) followed by a 3-hour incubation. Tb-peIF2α (pSer52) antibody (Invitrogen) (2 nM final assay concentration) in kinase buffer containing ETDA (final assay concentration of 20 mM) was added. After a 60 min incubation at room temperature, TR-FRET was monitored using an excitation wavelength of 340 nm and emission wavelengths of 490 nm and 520 nm. The emission ratio (520/490) at each compound concentration of was converted to percent inhibition using controls (i.e. reaction with no test compound and reaction with a known inhibitor) and IC50 values were calculated by fitting a four-parameter sigmoidal curve to the data using Prism (GraphPad software).

PERK kinase = PERK kinase (Homo sapiens (Human), UniProt Q9NZJ5); assay: Biochemical assay for PERK (coupled pyruvate kinase/lactate dehydrogenase assay); details: 1 mM ATP, rate from 2-3 h time frame
Experimental: Activity of PERK kinase was determined spectroscopically using a coupled pyruvate kinase/lactate dehydrogenase assay that continuously monitors the ATP hydrolysis-dependent oxidation of NADH (e.g., Schindler et al. Science (2000) 289: 1938-1942). Assays were conducted in 384-well plates (100 μL final volume) using 10 nM PERK (from Beryllium), 0.25 mg/mL Myelin Basic Protein substrate, 1.5 units pyruvate kinase, 2.1 units lactate dehydrogenase, 1 mM phosphoenol pyruvate, 0.28 mM NADH and 1 mM ATP in assay buffer (100 mM Tris, pH 7.5, 15 mM MgCl2, 0.5 mM DTT, 0.004% (w/v) BSA, and 0.004% Triton X-100). Inhibition of PERK was measured by adding serial diluted test compound (final assay concentration of 1% DMSO). A decrease in absorption at 340 nm was monitored continuously for 6 hours at 30° C. on a multi-mode microplate reader (BioTek). The reaction rate was calculated using the 2-3 h time frame. The reaction rate at each concentration of compound was converted to percent inhibition using controls (i.e. reaction with no test compound and reaction with a known inhibitor) and IC50 values were calculated using software routines in Prism (GraphPad software).

Sequence of GCN2 kinase (Q9P2K8 whole entry): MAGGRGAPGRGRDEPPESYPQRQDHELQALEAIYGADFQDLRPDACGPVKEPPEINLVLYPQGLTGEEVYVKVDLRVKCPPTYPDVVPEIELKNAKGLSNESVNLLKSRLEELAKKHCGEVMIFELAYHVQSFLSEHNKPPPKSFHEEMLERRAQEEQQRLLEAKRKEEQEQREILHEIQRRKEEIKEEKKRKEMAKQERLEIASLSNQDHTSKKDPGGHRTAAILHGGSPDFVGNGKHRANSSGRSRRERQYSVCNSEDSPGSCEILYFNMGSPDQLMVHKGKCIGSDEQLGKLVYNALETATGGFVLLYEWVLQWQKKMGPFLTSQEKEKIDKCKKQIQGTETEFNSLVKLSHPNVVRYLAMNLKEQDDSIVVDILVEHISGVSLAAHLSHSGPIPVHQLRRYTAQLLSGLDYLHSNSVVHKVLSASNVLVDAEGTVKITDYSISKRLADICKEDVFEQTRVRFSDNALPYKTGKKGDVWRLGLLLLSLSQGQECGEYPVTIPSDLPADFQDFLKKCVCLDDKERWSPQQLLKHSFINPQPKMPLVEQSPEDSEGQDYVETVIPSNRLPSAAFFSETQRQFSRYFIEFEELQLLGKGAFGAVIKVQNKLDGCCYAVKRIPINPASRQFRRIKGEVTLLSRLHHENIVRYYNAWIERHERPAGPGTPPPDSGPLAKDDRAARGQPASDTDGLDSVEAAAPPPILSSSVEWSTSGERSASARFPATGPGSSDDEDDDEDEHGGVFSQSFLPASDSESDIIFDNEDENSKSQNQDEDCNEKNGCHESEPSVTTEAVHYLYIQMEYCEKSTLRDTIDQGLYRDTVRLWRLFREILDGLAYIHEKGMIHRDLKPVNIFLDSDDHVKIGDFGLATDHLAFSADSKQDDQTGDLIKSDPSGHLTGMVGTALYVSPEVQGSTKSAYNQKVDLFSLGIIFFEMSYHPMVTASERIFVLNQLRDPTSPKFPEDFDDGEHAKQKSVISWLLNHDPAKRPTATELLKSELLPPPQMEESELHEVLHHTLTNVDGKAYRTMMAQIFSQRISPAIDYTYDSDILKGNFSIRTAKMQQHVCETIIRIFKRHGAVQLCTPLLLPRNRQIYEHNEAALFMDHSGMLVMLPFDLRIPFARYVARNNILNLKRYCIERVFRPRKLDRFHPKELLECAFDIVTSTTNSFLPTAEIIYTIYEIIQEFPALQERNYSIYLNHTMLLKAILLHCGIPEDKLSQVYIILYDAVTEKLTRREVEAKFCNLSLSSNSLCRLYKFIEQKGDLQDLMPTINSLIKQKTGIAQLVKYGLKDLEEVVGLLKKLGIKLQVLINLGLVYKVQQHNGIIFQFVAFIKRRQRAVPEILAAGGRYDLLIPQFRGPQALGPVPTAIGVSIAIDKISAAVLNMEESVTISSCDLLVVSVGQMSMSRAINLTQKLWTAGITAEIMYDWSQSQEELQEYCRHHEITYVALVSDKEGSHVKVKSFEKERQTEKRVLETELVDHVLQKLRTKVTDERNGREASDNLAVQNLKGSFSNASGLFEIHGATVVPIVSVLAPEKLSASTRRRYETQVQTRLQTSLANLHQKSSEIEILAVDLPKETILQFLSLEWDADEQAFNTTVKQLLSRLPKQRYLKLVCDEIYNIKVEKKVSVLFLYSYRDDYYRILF
Sequence of PERK kinase (Q9NZJ5 other isoform, or with tags, fused parts or gaps): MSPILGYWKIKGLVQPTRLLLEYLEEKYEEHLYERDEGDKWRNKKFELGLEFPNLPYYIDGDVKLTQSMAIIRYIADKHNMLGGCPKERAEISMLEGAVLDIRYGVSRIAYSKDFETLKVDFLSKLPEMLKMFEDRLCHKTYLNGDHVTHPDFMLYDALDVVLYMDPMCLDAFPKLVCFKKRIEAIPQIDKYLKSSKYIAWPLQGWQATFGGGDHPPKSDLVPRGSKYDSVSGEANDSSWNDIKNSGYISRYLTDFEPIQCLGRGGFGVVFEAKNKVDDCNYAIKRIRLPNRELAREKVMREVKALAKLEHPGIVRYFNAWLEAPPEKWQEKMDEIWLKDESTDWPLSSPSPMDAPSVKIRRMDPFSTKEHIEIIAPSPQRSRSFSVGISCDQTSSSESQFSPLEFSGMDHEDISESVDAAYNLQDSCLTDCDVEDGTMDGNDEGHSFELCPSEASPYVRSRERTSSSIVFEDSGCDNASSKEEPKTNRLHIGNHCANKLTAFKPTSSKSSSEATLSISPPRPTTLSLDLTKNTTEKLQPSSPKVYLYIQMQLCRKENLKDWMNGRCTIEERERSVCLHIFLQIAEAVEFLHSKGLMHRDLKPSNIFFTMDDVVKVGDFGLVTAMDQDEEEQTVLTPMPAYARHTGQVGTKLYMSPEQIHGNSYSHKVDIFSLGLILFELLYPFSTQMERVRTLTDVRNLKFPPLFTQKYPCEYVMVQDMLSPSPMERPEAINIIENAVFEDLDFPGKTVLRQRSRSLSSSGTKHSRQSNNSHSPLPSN

Row | Structure (SMILES) | IC50 (GCN2 kinase) | IC50 (PERK kinase)
1 | CNc1nc2nc(N)ncc2cc1-c1cc(Cl)cc(NS(=O)(=O)c2cc(Cl)cnc2OC)c1 [Example 104] | 1 to 10 µM | 1 to 10 µM
2 | CNc1cc2ncc(-c3cc(NS(=O)(=O)c4cc(Cl)cnc4OC)ccc3F)cc2cn1 [Example 60] | 0.1 to 0.5 µM | 0.5 to 1 µM
3 | CNc1ncc2cc(-c3cccc(NS(=O)(=O)c4cccnc4OC)c3F)c(NC)nc2n1 [Example 156] | 0.1 to 0.5 µM | 0.5 to 1 µM
4 | CNc1ncc2cc(-c3c(F)ccc(NS(=O)(=O)c4cc(Cl)cnc4OC)c3F)c(NC)nc2n1 [Example 73] | 0.1 to 0.5 µM | 0.1 to 0.5 µM
5 | CNc1ncc2cc(-c3cccc(NS(=O)(=O)c4ccc(Cl)cc4OC)c3F)c(NC)nc2n1 [Example 161] | 0.1 to 0.5 µM | 0.1 to 0.5 µM
6 | CNc1ncc2cc(-c3cc(NS(=O)(=O)c4cc(Cl)cnc4OC)c(C)cc3F)c(C)nc2n1 [Example 21] | 1 to 10 µM | 1 to 10 µM
7 | CNc1ncc2cc(-c3cccc(NS(=O)(=O)c4cc(C#N)ccc4OC)c3F)c(NC)nc2n1 [Example 145] | 0.1 to 0.5 µM | 0.5 to 1 µM
8 | CNc1ncc2cc(-c3ccnc(NS(=O)(=O)c4cc(Cl)cnc4OC)c3F)c(NC)nc2n1 [Example 144] | 0.1 to 0.5 µM | 0.1 to 0.5 µM
9 | CNc1ncc2cc(-c3cccc(NS(=O)(=O)c4cc(Cl)cc(OC)c4Cl)c3F)ccc2n1 [Example 83] | 0.1 to 0.5 µM | ≤ 0.1 µM
10 | CNc1ncc2cc(-c3cccc(NS(=O)(=O)c4cc(F)c(Br)cc4F)c3F)ccc2n1 [Example 72] | 0.1 to 0.5 µM | 0.1 to 0.5 µM
11 | CNc1ncc2cc(-c3cccc(NS(=O)(=O)c4cc(Cl)cnc4OC)c3F)c(NCC3COC3)nc2n1 [Example 99] | 0.1 to 0.5 µM | 0.1 to 0.5 µM
12 | CNc1nc2nc(N)ncc2cc1-c1ccnc(NS(=O)(=O)c2cc(Cl)cnc2OC)c1F [Example 155] | 0.1 to 0.5 µM | 0.1 to 0.5 µM
13 | CNc1ncc2cc(-c3cccc(NS(=O)(=O)c4cc(C#N)cnc4OC)c3F)c(NC)nc2n1 [Example 152] | 0.1 to 0.5 µM | 
14 | CNc1ncc2cc(-c3cccc(NS(=O)(=O)c4cccnc4C(F)(F)F)c3F)c(NC)nc2n1 [Example 131] | 0.1 to 0.5 µM | 
15 | CNc1ncc2cc(-c3cccc(NS(=O)(=O)c4ccc(C#N)cc4Cl)c3F)c(NC)nc2n1 [Example 141] | 1 to 10 µM | 
16 | CNc1nc2nc(NC(C)(C)C)ncc2cc1-c1cccc(NS(=O)(=O)c2cc(Cl)cnc2OC)c1F [Example 124] | 0.1 to 0.5 µM | 
17 | CNc1nc2nc(NC(=O)C3CC3)ncc2cc1-c1cccc(NS(=O)(=O)c2cc(Cl)cnc2OC)c1F [Example 172] | 0.1 to 0.5 µM | 
18 | CNc1nc2nc(NCCOC)ncc2cc1-c1cccc(NS(=O)(=O)c2cc(Cl)cnc2OC)c1F [Example 139] | 0.1 to 0.5 µM | 
19 | CNc1ncc2cc(-c3cccc(NS(=O)(=O)c4cc(Cl)c(C)cc4OC)c3F)c(NC)nc2n1 [Example 157] | ≤ 0.1 µM | 
20 | CNc1nc2nc(NC3COC3)ncc2cc1-c1cccc(NS(=O)(=O)c2cc(Cl)cnc2OC)c1F [Example 138] | 0.1 to 0.5 µM | 
21 | CNc1ncc2cc(-c3cccc(NS(=O)(=O)c4cc(OC)c(Cl)cc4OC)c3F)c(NC)nc2n1 [Example 130] | 0.5 to 1 µM | 
22 | CNc1ncc2cc(-c3cc(F)cc(NS(=O)(=O)c4cc(Cl)cnc4OC)c3)ccc2n1 [Example 37] | 1 to 10 µM | 
23 | CNc1ncc2cc(-c3cccc(NS(=O)(=O)c4cccc(C(C)=O)c4Cl)c3F)c(NC)nc2n1 [Example 146] | 0.1 to 0.5 µM | 
24 | CNc1ncc2cc(-c3cccc(NS(=O)(=O)c4cc(C(C)(C)C)ccc4OC)c3F)c(NC)nc2n1 [Example 134] | 1 to 10 µM | 
25 | CNc1ncc2cc(-c3cccc(NS(=O)(=O)c4cc(OC)ccc4OC)c3F)c(NC)nc2n1 [Example 140] | 0.1 to 0.5 µM | 
26 | CNc1ncc2cc(-c3cccc(NS(=O)(=O)c4cccc(C(=O)OC)c4Cl)c3F)c(NC)nc2n1 [Example 150] | 0.5 to 1 µM | 
27 | CNc1ncc2cc(-c3cc(F)cc(NS(=O)(=O)c4cc(Cl)cc(C(C)(C)O)c4Cl)c3)c(NC)nc2n1 [Example 120] | 1 to 10 µM | 
28 | CNc1nc2nc(NCC3COC3)ncc2cc1-c1cccc(NS(=O)(=O)c2cc(Cl)cnc2OC)c1F [Example 149] | 0.5 to 1 µM | 
